For 37 compounds, TGI and GI50 results are on record in PubChem BioAssay (NCI).

Among the test systems are M19-MEL melanoma; KM20L2 colon; HOP-18 NSCLC; DMS 273 small cell lung; DLD-1 colon; XF 498 CNS; SNB-78 CNS; RXF-631 renal; MDA-N.
Common to all, as to assay: NCI anticancer screen, dose series, 48 h

Where “and” joins values, the source holds several entries; their conditions need not be identical. Identical values can stand only once.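 Briefly, cells in 96-well plates were exposed to five compound concentrations for 48 h, and endpoints were estimated by linear interpolation. The concentration for 50% growth inhibition is given as GI50. TGI is the concentration that stops growth completely.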

For `COCCOCOC(CCCCO)c1cc(C)c(O[Si](C)(C)C(C)(C)C)c(C)c1` (configuration not stated), the TGI was determined as 18 µM in the experiment on M19-MEL melanoma, 17.9 µM in the experiment on KM20L2 colon and 30.8 µM in the experiment on HOP-18 NSCLC.
On to `CCCC/C=C/C=C/C=C/CCCCCCCC(=O)OCC(COC(=O)CCCCCCC/C=C/C1C=CC(CCCC)C(C(=O)O)C1C(=O)O)OC(=O)CCCCCCC/C=C/C=C/C=C/CCCC` (configuration not stated) (tested in a mixture with another compound), for which the TGI in the experiment on M19-MEL melanoma was 36.9 µM; in the experiment with DMS 273 small cell lung, 29.9 µM; in the experiment on KM20L2 colon, 48.1 µM; in the experiment with DLD-1 colon it was 40 µM; in the experiment on HOP-18 NSCLC, 47.8 µM.
With `CN(C)C=Nc1nc(=O)n(C2CCC(CO)O2)cc1F` (configuration not stated), the TGI in the experiment with XF 498 CNS, with DMS 273 small cell lung, in the experiment on KM20L2 colon, in the experiment with DLD-1 colon, in the experiment with SNB-78 CNS and in the experiment with HOP-18 NSCLC was > 100 µM in each case.
`COc1ccc(/C=C/COC(C)=O)cc1OC`: the TGI in the experiment on M19-MEL melanoma, in the experiment on DMS 273 small cell lung, with KM20L2 colon and in the experiment on SNB-78 CNS was > 100 µM in each case.
With `S=P1(Oc2ccccc2)NNP2(=NP(N3CC3)(N3CC3)=NP(N3CC3)(N3CC3)=N2)NN1` (configuration not stated), the TGI in the experiment with M19-MEL melanoma, with XF 498 CNS, in the experiment on DMS 273 small cell lung, in the experiment with DLD-1 colon, in the experiment with RXF-631 renal and in the experiment with HOP-18 NSCLC was > 100 µM each time.
On to `COc1ccc2c(c1)[n+]([O-])c(C(N)=O)c(N)[n+]2[O-]`, for which the TGI in the experiment on M19-MEL melanoma, in the experiment with DMS 273 small cell lung, with KM20L2 colon, with DLD-1 colon, in the experiment with RXF-631 renal and in the experiment with SNB-78 CNS was > 100 µM each time. For the same compound, the TGI in the experiment with HOP-18 NSCLC was > 100 µM.
For `Br[Se]c1ccccn1`, the TGI with MDA-N worked out at 32.2 µM.
Turning to `N#CCCC[Si]12OCCN(CCO1)CCO2`, the TGI with M19-MEL melanoma, in the experiment on DMS 273 small cell lung, with DLD-1 colon, in the experiment on SNB-78 CNS and with HOP-18 NSCLC was > 100 µM in each case.
`O=C1CSC(=S)N1/N=C/c1ccc(Cl)c([N+](=O)[O-])c1` had a TGI with MDA-N of 52.6 µM.
Consider `CC(=O)[O-].CC(=O)[O-].O=C(N/N=C/c1cc(Cl)cc(Cl)c1O)c1ccncc1.[Cu+2]`, for which the TGI in the experiment with KM20L2 colon is > 100 µM.
As to `Cc1ccc(S(=O)(=O)N2CCC2c2ccccc2)cc1` (configuration not stated), the TGI with M19-MEL melanoma, with XF 498 CNS, in the experiment on DMS 273 small cell lung, in the experiment on KM20L2 colon, with SNB-78 CNS and in the experiment on HOP-18 NSCLC was > 100 µM in each case.
In the case of `N#CC(C(=O)CCC(=O)Nc1ccc(Cl)c(Cl)c1)c1ccccc1` (configuration not stated), the TGI in the experiment on M19-MEL melanoma, in the experiment with XF 498 CNS, with DMS 273 small cell lung, in the experiment on KM20L2 colon, with DLD-1 colon and in the experiment with SNB-78 CNS was > 100 µM in each case. Moreover, the TGI in the experiment on HOP-18 NSCLC was > 100 µM.
Take `O=C1C(C(Nc2ccccc2)c2ccccc2)=C([O-])c2ccccc21.O=C1C(C(Nc2ccccc2)c2ccccc2)=C([O-])c2ccccc21.[Cu+2]` (configuration not stated): the GI50 is > 100 µM in the experiment on M19-MEL melanoma; 26.3 µM with DMS 273 small cell lung; 52.5 µM in the experiment on KM20L2 colon; 34.6 µM in the experiment with DLD-1 colon; 84.6 µM in the experiment on SNB-78 CNS; > 100 µM in the experiment on HOP-18 NSCLC. The TGI with M19-MEL melanoma, in the experiment with DMS 273 small cell lung, in the experiment on KM20L2 colon, with DLD-1 colon, in the experiment with SNB-78 CNS and in the experiment on HOP-18 NSCLC was > 100 µM each time.
For the compound `CC#Cc1ccc(-c2ccccc2)s1`, in the experiment with MDA-N, the TGI was > 100 µM.
Regarding `O=S1C(=c2ccc(=C3Sc4ccccc4S3)cc2)Sc2ccccc21` (configuration not stated), the TGI was 38.3 µM in the experiment on M19-MEL melanoma; 37.1 µM in the experiment with DMS 273 small cell lung; 31.9 µM in the experiment on KM20L2 colon; > 93.3 µM in the experiment on DLD-1 colon; > 100 µM in the experiment on SNB-78 CNS; > 100 µM in the experiment on HOP-18 NSCLC.
For the compound `O=C(/C=C/c1c(O)ccc2ccccc12)c1ccc([N+](=O)[O-])cc1`, the TGI is 35.4 µM in the experiment with M19-MEL melanoma; > 100 µM in the experiment on XF 498 CNS; > 100 µM in the experiment with DMS 273 small cell lung; > 100 µM in the experiment with KM20L2 colon; 40.8 µM in the experiment on DLD-1 colon; 66.4 µM in the experiment on SNB-78 CNS. This compound yielded a TGI in the experiment on HOP-18 NSCLC of 47.6 µM.
Turning to `O=c1[nH]c(-c2ccccc2)nc2cc(Cl)ccc12`, the TGI in the experiment on M19-MEL melanoma, in the experiment on XF 498 CNS, in the experiment with DMS 273 small cell lung, in the experiment with KM20L2 colon, in the experiment with DLD-1 colon and in the experiment with RXF-631 renal was > 100 µM each time. Further, the TGI with SNB-78 CNS was > 100 µM.
On to `COc1c(CC(C)=O)ccc2c1C(=O)c1ccc(C=O)c(OC(C)=O)c1C2=O`, for which the TGI amounted to 24.5 µM in the experiment with DMS 273 small cell lung; 37.8 µM with KM20L2 colon; 14.3 µM in the experiment with DLD-1 colon; 47.8 µM in the experiment on RXF-631 renal; 55.6 µM in the experiment with SNB-78 CNS; 40.6 µM with HOP-18 NSCLC.
On to `CCC(C)SC1SCC2C(=O)N(C)C3(CC3C)C(=O)OCC(NC(=O)c3nc4ccccc4cc3O)C(=O)NC(C)C(=O)N(C)C1C(=O)N(C)C1(CC1C)C(=O)OCC(NC(=O)c1nc3ccccc3cc1O)C(=O)NC(C)C(=O)N2C` (configuration not stated), for which the TGI in the experiment with M19-MEL melanoma stood at 0.000236 µM; with XF 498 CNS, 0.000434 µM; in the experiment with DMS 273 small cell lung it was 0.000123 µM; with KM20L2 colon, 0.000446 µM; with DLD-1 colon, 0.0732 µM; in the experiment on RXF-631 renal it was 1.22 µM. The TGI in the experiment on SNB-78 CNS was 0.255 µM; with HOP-18 NSCLC, 24.1 µM; in the experiment with MDA-N, 0.000162 µM.
Turning to `C[C@@H]1CC[C@H]2C(C)(C)[C@H]3C[C@@]12CC[C@@]3(C)O`, in the experiment with MDA-N, the TGI is > 100 µM.
Regarding `CCOC(=O)/C(=C/c1ccc(OC)cc1)N(CC)CC`, the TGI with M19-MEL melanoma, in the experiment with XF 498 CNS, with DMS 273 small cell lung, with KM20L2 colon and with SNB-78 CNS was > 100 µM throughout.
In the case of `COC1=CC(=O)C(C2(OC(C)C)OC(=O)C(Cl)=C2Cl)=CC1=O` (configuration not stated), the TGI in the experiment on MDA-N was > 100 µM.
On to `CN(C)C(=S)/N=c1\ssc(=S)n1C1CCCCC1`, for which the TGI is > 100 µM in the experiment with M19-MEL melanoma; 59.3 µM with XF 498 CNS; > 100 µM in the experiment with DMS 273 small cell lung; > 100 µM with KM20L2 colon; 58.2 µM with DLD-1 colon; 40.8 µM with RXF-631 renal. The TGI in the experiment with HOP-18 NSCLC was > 100 µM.
On to `CN(C)CC1CCCC/C1=N/O` (configuration not stated), for which the TGI in the experiment on M19-MEL melanoma, with DMS 273 small cell lung, in the experiment with KM20L2 colon, with DLD-1 colon, in the experiment with RXF-631 renal and in the experiment with SNB-78 CNS was > 100 µM in each case. Further, the TGI in the experiment on HOP-18 NSCLC was > 100 µM.
Take `CC(=O)OC1(C)N=NC2(CCCCC2)O1` (configuration not stated): the TGI in the experiment on MDA-N was > 100 µM.
Still for that read-out and setting: with `C=C(C)C12OC1[C@@]1(C)C(=CC2=O)CCC(O)[C@@H]1C` (some centres not stated) the figure was 17.3 µM.
For the compound `O=C(Nc1nc(=S)[nH][nH]1)C(=O)C(C(=O)c1ccc2ccccc2c1)C1OC(=O)c2ccccc21` (configuration not stated), the TGI in the experiment on M19-MEL melanoma was 30.6 µM; in the experiment on XF 498 CNS, 41.9 µM; in the experiment on DMS 273 small cell lung, 87.5 µM; in the experiment with KM20L2 colon, > 100 µM; in the experiment with DLD-1 colon, 44.6 µM; in the experiment on RXF-631 renal, 77.6 µM. Further, the TGI with SNB-78 CNS is > 100 µM; in the experiment on HOP-18 NSCLC it was 40.2 µM.
As to `O=C(O)CSc1n[nH]c(-c2ccccc2O)n1`, the TGI in the experiment with M19-MEL melanoma, in the experiment with XF 498 CNS, in the experiment on DMS 273 small cell lung, with KM20L2 colon, in the experiment with DLD-1 colon and in the experiment on RXF-631 renal was > 100 µM in each case. In the experiment on SNB-78 CNS, the TGI is > 100 µM.
For the compound `O=c1c2cccnc2ncn1CCN1CCCCC1`, the TGI in the experiment with M19-MEL melanoma, with XF 498 CNS, in the experiment with DMS 273 small cell lung, in the experiment on KM20L2 colon, in the experiment with DLD-1 colon and in the experiment with SNB-78 CNS was > 100 µM throughout.
For the compound `CC(=O)Nc1cc2ccc(=O)oc2cc1Cl`, in the experiment with MDA-N, the TGI was > 100 µM.
In the case of `C[C@@]1(O)CC[C@]2(C)C3CCCC3[C@H]12` (some centres not stated), the TGI with M19-MEL melanoma, with DMS 273 small cell lung, with KM20L2 colon, in the experiment with DLD-1 colon, in the experiment with RXF-631 renal and with SNB-78 CNS was > 100 µM in each case. Moreover, the TGI in the experiment with HOP-18 NSCLC is > 100 µM.
As for `NC(N)=NS(=O)(=O)c1ccc(N=Nc2c(O)c(C(=O)O)cc3ccccc23)cc1`, the TGI in the experiment with MDA-N is > 100 µM.
For the compound `Cc1[cH-]c(=O)n(-c2ccccc2)n1.[Au+].[Au].c1ccc([PH+](c2ccccc2)c2ccccc2)cc1.c1ccc([PH+](c2ccccc2)c2ccccc2)cc1`, the GI50 was 28.1 µM in the experiment on M19-MEL melanoma; 10.3 µM in the experiment on DMS 273 small cell lung; 66.7 µM in the experiment with KM20L2 colon; 15.7 µM in the experiment with DLD-1 colon; 3.43 µM and 14.6 µM with SNB-78 CNS; 4.06 µM and 10.3 µM in the experiment on HOP-18 NSCLC. Also, the TGI with M19-MEL melanoma is > 100 µM; in the experiment with DMS 273 small cell lung it was 30.7 µM; in the experiment with KM20L2 colon, > 100 µM; in the experiment with DLD-1 colon, 41.5 µM; with SNB-78 CNS it was > 100 µM; with HOP-18 NSCLC, 27 µM.
As to `C=C(C)C(=O)O[C@@H]1C[C@@]2(C)O[C@@H]2C[C@H](O)/C(C)=C/[C@H]2OC(=O)C(=C)[C@@H]21`, the TGI in the experiment on MDA-N was > 100 µM.
Turning to `O=C1c2ccccc2C(=O)c2c(/C=C\N3CCCCC3)ccnc21`, the TGI with M19-MEL melanoma was 0.563 µM; with XF 498 CNS, 27.2 µM; in the experiment with DMS 273 small cell lung, 10.4 µM; in the experiment on KM20L2 colon it was 32.6 µM; with DLD-1 colon, 15.8 µM; with RXF-631 renal, > 45.8 µM. In addition, the TGI stood at 61.8 µM in the experiment with SNB-78 CNS, 2.96 µM with HOP-18 NSCLC and 0.352 µM with MDA-N.
Regarding `CCOC(=O)C1Sc2ccccc2N=C1C` (configuration not stated), the TGI in the experiment with M19-MEL melanoma, with XF 498 CNS, in the experiment with KM20L2 colon, with DLD-1 colon, in the experiment on SNB-78 CNS and in the experiment with HOP-18 NSCLC was > 100 µM in each case.
On to `CCCOc1nc(N)c2cnn(C3CCCCO3)c2n1` (configuration not stated), for which the TGI in the experiment on M19-MEL melanoma, in the experiment on DMS 273 small cell lung, with KM20L2 colon, with DLD-1 colon, in the experiment on SNB-78 CNS and in the experiment on HOP-18 NSCLC was > 100 µM throughout.
